Assay results taken from PubChem BioAssay AID1963974 (Molecular Pharmacology Branch, DTP, NCI, 2024).

Test system: 648629-189-R-J1-PDC spheroids with HUVEC/MSC, viability
Assay: Anticancer human tumor 648629-189-R-J1-PDC patient-derived bladder carcinoma cell line growth inhibition [PI3K]
Conditions: for IC50: curve of first compound; for viability, T/C: stronger effect = lower value
Text: Combinatorial screen of targeted agents with the PI3K inhibitors inavolisib, alpelisib, duvelisib, and copanlisib in multi-cell type tumor spheroids
A high-throughput screen of multi-cell type tumor spheroids was designed to identify active combinations of targeted small molecules and PI3K pathway inhibitors. Complex spheroids include a stromal component modeled by human endothelial cells (HUVEC) and fibroblasts modeled by human mesenchymal stem cells (MSCs). The concentration ranges selected for each drug and investigational agent were based upon clinically achievable concentrations if the clinical Cmax of the agent was known.
Compounds. The drugs and investigational agents: inavolisib (NSC800729), alpelisib (NSC765974), duvelisib (NSC772469), copanlisib (NSC816437), ipatasertib (NSC767898), afuresertib (NSC778305), talazoparib (NSC767125), sapanisertib (NSC764658), selumetinib (NSC741078), tovorafenib (DAY101, NSC766906), vemurafenib (NSC761431), ravoxertinib (NSC781343), sotorasib (NSC818433), MRTX1133 (NSC 836407), abemaciclib (NSC 768073), palbociclib (NSC758247), venetoclax (NSC 766270), SY5609 (NSC837396), enzalutamide (NSC755605), and darolutamide (NSC825331), were obtained from the National Cancer Institute (NCI) Developmental Therapeutics Program Chemical Repository. The FDA-approved anticancer drug set is available from the NCI Developmental Therapeutics Program. […] The stock solutions were prepared in dimethyl sulfoxide (DMSO, Sigma-Aldrich, St. Louis, MO, cat. D2650) at 800-fold the tested concentration and stored at -70 degrees C prior to their use. All drugs and investigational agents were tested over a range starting from a high concentration at or near the clinical Cmax and decreasing in half-log increments. If the clinical Cmax for an agent had not been determined, the highest concentration tested was 10 microM.
Cell Culture. All cells were maintained in an incubator at 37 degrees C and 5% CO2 with 95% humidity. The PDC lines were cultured according to standard operating procedures established by the NCI PDMR (https://pdmr.cancer.gov/sops/default.htm). All PDCs were thawed and cultured in Matrigel-coated flasks prepared with a working solution of 1X Ham's F-12 nutrient mix, without supplementation (Invitrogen, Waltham, MA, cat. 11765054), 100 U/mL penicillin-streptomycin (Invitrogen, cat. 15140122), and 2.5% Matrigel (Corning Inc., Corning, NY, cat. 354248) for the first three passages. The 354836-022-R-J1-PDC, 475296-252-R-J1-PDC, and 997726-040-R-J2-PDC lines were cultured in 6A media, which includes advanced DMEM/F-12 (Thermo Fisher Scientific, cat. 12634028), 10 mM HEPES (Thermo Fisher Scientific, cat. 15630080), 1X GlutaMAX supplement (Thermo Fisher Scientific, cat. 35050061), 0.1 mg/mL primocin (InvivoGen, San Diego, CA, cat. ant-pm-2), 10% defined fetal bovine serum, heat inactivated (HyClone Laboratories Inc., Logan, UT, cat. SH30070.03HI), 50% L-WRN conditioned media (ATCC, cat. CRL-3276), 1.25 mM N-Acetyl-L-cysteine (Sigma-Aldrich, cat. A9165), 10 mM nicotinamide (Sigma-Aldrich, cat. N0636), 1X B-27 supplement (Thermo Fisher Scientific, cat. 17504044), 1X N-2 supplement (Thermo Fisher Scientific, cat. 17502048), and 10 microM Y-27632 dihydrochloride (Tocris Bioscience, Bristol, United Kingdom, cat. 1254). The 624824-186-R-J2-PDC line was cultured in 6C/Colon 1B media, which includes all 6A media components plus 50 ng/mL human EGF recombinant protein (Thermo Fisher Scientific, cat. PHG0311). […]
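Also: spheroids exposed to agents for seven days before reading.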
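For viability, T/C in this document: percent of vehicle control luminescence where 100% = DMSO treated spheroids.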

`Cn1nccc1Nc1nccc(-c2ccn(C(CO)c3ccc(Cl)c(F)c3)c(=O)c2)n1` (configuration not stated) + CC(Nc1ccc2c(c1)OCCn1cc(N3C(=O)OCC3C(F)F)nc1-2)C(N)=O gave an IC50 (second compound 0.00316 µM) greater than 10 µM, an IC50 (second compound 0.01 µM) greater than 10 µM and an IC50 (second compound 0.0316 µM) greater than 10 µM. It also gave an IC50 (second compound 0.1 µM) greater than 10 µM, an IC50 (second compound 0.316 µM) greater than 10 µM and an IC50 (second compound 1 µM) greater than 10 µM. It also gave a viability, T/C (second compound 0.00316 µM, first compound 0.0316 µM) of 103%, a viability, T/C (second compound 0.00316 µM, first compound 0.1 µM) of 105% and a viability, T/C (second compound 0.00316 µM, first compound 0.316 µM) of 111%. For the same compound, the viability, T/C (second compound 0.00316 µM, first compound 1 µM) was 109%, the viability, T/C (second compound 0.00316 µM, first compound 3.16 µM) was 109% and the viability, T/C (second compound 0.00316 µM, first compound 10 µM) was 79.3%. For the same compound, the viability, T/C (second compound 0.01 µM, first compound 0.0316 µM) was 111%, the viability, T/C (second compound 0.01 µM, first compound 0.1 µM) was 93% and the viability, T/C (second compound 0.01 µM, first compound 0.316 µM) was 102%. The viability, T/C (second compound 0.01 µM, first compound 1 µM) was 108%, the viability, T/C (second compound 0.01 µM, first compound 3.16 µM) was 105% and the viability, T/C (second compound 0.01 µM, first compound 10 µM) was 81.2%. The viability, T/C (second compound 0.0316 µM, first compound 0.0316 µM) was 107%, the viability, T/C (second compound 0.0316 µM, first compound 0.1 µM) was 101% and the viability, T/C (second compound 0.0316 µM, first compound 0.316 µM) was 97.4%. It also gave a viability, T/C (second compound 0.0316 µM, first compound 1 µM) of 103%, a viability, T/C (second compound 0.0316 µM, first compound 3.16 µM) of 106% and a viability, T/C (second compound 0.0316 µM, first compound 10 µM) of 79.1%. For the same compound, the viability, T/C (second compound 0.1 µM, first compound 0.0316 µM) was 97.2%, the viability, T/C (second compound 0.1 µM, first compound 0.1 µM) was 97.5% and the viability, T/C (second compound 0.1 µM, first compound 0.316 µM) was 84.9%. It also gave a viability, T/C (second compound 0.1 µM, first compound 1 µM) of 103%, a viability, T/C (second compound 0.1 µM, first compound 3.16 µM) of 85.1% and a viability, T/C (second compound 0.1 µM, first compound 10 µM) of 73%. The viability, T/C (second compound 0.316 µM, first compound 0.0316 µM) was 82.1%, the viability, T/C (second compound 0.316 µM, first compound 0.1 µM) was 86% and the viability, T/C (second compound 0.316 µM, first compound 0.316 µM) was 82.7%. For the same compound, the viability, T/C (second compound 0.316 µM, first compound 1 µM) was 99.8%, the viability, T/C (second compound 0.316 µM, first compound 3.16 µM) was 78.3% and the viability, T/C (second compound 0.316 µM, first compound 10 µM) was 68.8%. For the same compound, the viability, T/C (second compound 1 µM, first compound 0.0316 µM) was 66.2%, the viability, T/C (second compound 1 µM, first compound 0.1 µM) was 67% and the viability, T/C (second compound 1 µM, first compound 0.316 µM) was 70.3%. For the same compound, the viability, T/C (second compound 1 µM, first compound 1 µM) was 76.3%, the viability, T/C (second compound 1 µM, first compound 3.16 µM) was 73% and the viability, T/C (second compound 1 µM, first compound 10 µM) was 62.3%.
